Consider 25 molecules from ChEMBL document CHEMBL1144925, “Binding structures and potencies of oxidosqualene cyclase inhibitors with the homologous squalene-hopene cyclase” (J Med Chem, 2003).

One experiment concerns the target T1, Lanosterol synthase (Homo sapiens, UniProt P48449).
T1 sequence (P48449 whole entry): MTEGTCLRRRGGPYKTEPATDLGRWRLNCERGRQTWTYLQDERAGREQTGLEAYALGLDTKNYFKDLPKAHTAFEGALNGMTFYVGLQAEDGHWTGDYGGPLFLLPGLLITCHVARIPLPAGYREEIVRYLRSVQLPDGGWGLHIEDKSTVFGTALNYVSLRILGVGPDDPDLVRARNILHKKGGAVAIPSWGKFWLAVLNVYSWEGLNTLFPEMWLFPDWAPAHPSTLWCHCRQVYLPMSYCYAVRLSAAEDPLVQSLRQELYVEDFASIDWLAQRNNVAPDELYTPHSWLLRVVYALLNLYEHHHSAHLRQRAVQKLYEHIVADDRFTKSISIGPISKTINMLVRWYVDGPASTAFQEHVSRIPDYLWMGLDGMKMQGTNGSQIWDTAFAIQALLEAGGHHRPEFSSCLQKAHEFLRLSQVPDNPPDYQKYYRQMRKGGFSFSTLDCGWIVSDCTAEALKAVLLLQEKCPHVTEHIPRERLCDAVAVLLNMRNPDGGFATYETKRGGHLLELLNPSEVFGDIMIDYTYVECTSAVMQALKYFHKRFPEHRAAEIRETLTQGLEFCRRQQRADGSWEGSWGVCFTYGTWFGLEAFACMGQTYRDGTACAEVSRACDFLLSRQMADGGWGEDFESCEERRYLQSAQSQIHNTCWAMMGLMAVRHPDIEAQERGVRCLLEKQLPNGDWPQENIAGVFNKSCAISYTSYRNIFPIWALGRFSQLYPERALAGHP
Nature of the experiment: Inhibitory activity against Oxidosqualene-lanosterol cyclase from human liver microsomes. (Liver microsomes are vesicles of endoplasmic reticulum, rich in cytochrome P450 enzymes.)

The next experiment deals with T2, Squalene--hopene cyclase (Alicyclobacillus acidocaldarius subsp. acidocaldarius (strain ATCC27009 / DSM 446 / 104-1A) (Bacillus acidocaldarius), UniProt P33247).
T2 sequence (P33247 whole entry): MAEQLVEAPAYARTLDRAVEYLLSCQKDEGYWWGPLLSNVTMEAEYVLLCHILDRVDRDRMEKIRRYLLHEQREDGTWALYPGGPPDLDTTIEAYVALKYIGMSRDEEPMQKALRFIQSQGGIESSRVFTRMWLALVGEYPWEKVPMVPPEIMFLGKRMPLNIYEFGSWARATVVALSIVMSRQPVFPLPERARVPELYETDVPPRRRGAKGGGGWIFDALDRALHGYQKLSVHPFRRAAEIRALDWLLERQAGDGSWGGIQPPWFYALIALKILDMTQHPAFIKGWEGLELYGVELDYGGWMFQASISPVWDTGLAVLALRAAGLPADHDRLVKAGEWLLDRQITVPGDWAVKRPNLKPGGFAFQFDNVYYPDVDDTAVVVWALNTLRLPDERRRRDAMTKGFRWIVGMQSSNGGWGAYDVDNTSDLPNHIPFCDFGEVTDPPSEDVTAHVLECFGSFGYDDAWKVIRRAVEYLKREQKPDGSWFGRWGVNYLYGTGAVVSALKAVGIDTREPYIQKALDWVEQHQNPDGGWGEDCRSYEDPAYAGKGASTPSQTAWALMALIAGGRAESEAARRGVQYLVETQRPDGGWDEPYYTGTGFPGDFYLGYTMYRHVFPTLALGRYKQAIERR
Put plainly: Inhibitory activity against squalene hopene cyclase from Alicyclobacillus acidocaldarius.

What is called IC50 is the concentration that gives 50% inhibition. Higher therefore signals a need for much substance. For the molecule `C=CCN(C)C/C=C/COc1ccc(-c2nsc3cc(Br)ccc23)cc1`, the figures for the IC50 at Lanosterol synthase and on Squalene--hopene cyclase were 1860 nM and 130 nM, respectively.

Turning to `C=CCN(C)C/C=C/COc1ccc2c(-c3ccc(Br)cc3)noc2c1`, the IC50 against Lanosterol synthase worked out at 29 nM; against Squalene--hopene cyclase it was 49 nM. For `C=CCN(C)C/C=C/COc1ccc2c(-c3ccc(Br)cc3)csc2c1`, the IC50 against Lanosterol synthase was found to be 13.5 nM; against Squalene--hopene cyclase, 75 nM. Regarding `CN(CCCCCCOc1ccc(C(=O)c2ccc(Br)cc2)c(F)c1)C1CC1`, the results for the IC50 at Lanosterol synthase and against Squalene--hopene cyclase were 98 nM and 38 nM, respectively. In the case of `C=CCN(C)CCCCCCOc1ccc2c(-c3ccc(Br)cc3)coc2c1`, the IC50 against Lanosterol synthase came out at 610 nM. `CN(C[C@H]1C[C@@H]1COc1ccc(C(=O)c2ccc(Br)cc2)c(F)c1)C1CC1`: the IC50 against Lanosterol synthase worked out at 439 nM; on Squalene--hopene cyclase, 50 nM. Regarding `CN(C[C@H]1C[C@@H]1COc1ccc(C(=O)c2ccc(Br)cc2)cc1)C1CC1`, the IC50 on Lanosterol synthase was 22 nM; against Squalene--hopene cyclase, 62 nM. Molecule `C=CCN(C)C/C=C/COc1ccc2c(-c3ccc(Br)cc3)coc2c1` came in with an IC50 on Lanosterol synthase of 500 nM. Consider `C=CCN(C)CCCCCCOc1ccc2c(-c3ccc(Br)cc3)nn(C)c2c1`, for which the IC50 at Lanosterol synthase turned out to be 19.6 nM.

As to `C=CCN(C)CCCCCCOc1ccc2c(-c3ccc(Br)cc3)noc2c1`, the IC50 against Lanosterol synthase was found to be 380 nM; against Squalene--hopene cyclase, 75 nM. Consider `C=CCN(C)Cc1ccc(-c2ccc(C(=O)c3ccc(Br)cc3)cc2)cc1`, for which it took 16 nM to reach half-maximal inhibition against Lanosterol synthase (IC50).

Regarding `C=CCN(C)CCCCCCOc1ccc(C(=O)c2ccc(Br)cc2)cc1`, the IC50 against Lanosterol synthase came out at 5.4 nM; on Squalene--hopene cyclase, 96 nM. On to `C=CCN(C)CCCCCCOc1ccc(-c2nsc3cc(Br)ccc23)cc1`, for which the IC50 against Lanosterol synthase was 1900 nM. On Lanosterol synthase, `C=CCN(C)CCCCCCOc1ccc2c(-c3ccc(Br)cc3)n[nH]c2c1` came in with an IC50 of 39 nM. In the case of `C=CCN(C)CCCCCCOc1ccc2c(C)nn(C)c2c1`, the IC50 was determined as 240 nM at Lanosterol synthase and 332 nM against Squalene--hopene cyclase. In the same order, the values of `O=C(c1ccc(Cl)cc1)N1CCC(=Cc2ccc(C3=NCCO3)cc2)CC1` are 36 nM and 2800 nM. Consider `C=CCN(C)C/C=C/COc1ccc(C(=O)c2ccc(Br)cc2)cc1`, for which the IC50 turned out to be 3 nM at Lanosterol synthase and 40 nM against Squalene--hopene cyclase. On Lanosterol synthase, `C=CCN(C)CCCCCCOc1ccc2c(-c3ccc(Br)cc3)nsc2c1` showed an IC50 of 2.9 nM.

Take `C=CCN(C)CCCCCCOC1CCN(C(=O)c2ccc(F)cc2)CC1`: the IC50 worked out at 71 nM on Lanosterol synthase and 1200 nM against Squalene--hopene cyclase. In turn, `CN(C(=O)Oc1ccc(Cl)cc1)[C@H]1CC[C@H](c2ccc(CN3CCCCC3)cc2)CC1` yielded an IC50 at Lanosterol synthase of 11.3 nM. As for `CN(C(=O)Oc1ccc(Cl)cc1)[C@H]1CC[C@H](c2ccc(C[N+]3([O-])CCCCC3)cc2)CC1`, the concentration for half-maximal inhibition (IC50) at Lanosterol synthase turned out to be 640 nM; on Squalene--hopene cyclase it was 123 nM.

Consider `C=CCN(C)CCCCCCOc1ccc2c(c1)CON=C2c1ccc(Br)cc1`, for which the figures for the IC50 on Lanosterol synthase and against Squalene--hopene cyclase were 4.1 nM and 172 nM, respectively.

As for `CN(CCCCCCOC1CCN(C(=O)c2ccc(F)cc2)CC1)C1CC1`, the IC50 at Lanosterol synthase was determined as 48 nM; at Squalene--hopene cyclase, 760 nM. With `C=CCN(C)CCCCCCOc1ccc2c(-c3ccc(Br)cc3)nccc2c1`, the midpoint of inhibition against Lanosterol synthase, the IC50, lay at 3.5 nM. For `C=CCN(C[C@H]1C[C@@H]1COc1ccc(C(=O)c2ccc(Br)cc2)cc1)C1CC1`, inhibition on Lanosterol synthase was half-maximal at 223 nM (IC50).
